Data: patent US20250145665A1, “MACROCYCLIC PEPTIDES USEFUL AS MODULATORS OF TNF ALPHA” (Bristol-Myers Squibb Company, priority 2023, published 2025)
Positions of bridges follow the written chain, without caps; N, C: chain ends. Non-standard residues stand in square brackets, D forms with d. Residues, ends and D or L forms follow the SMILES beside them. Bip(4'-NHAc) = CC(=O)Nc1ccc(-c2ccc(C[C@H](N)C(=O)O)cc2)cc1; Ala(morpholin-4-yl) = N[C@@H](CN1CCOCC1)C(=O)O; Bip = N[C@@H](Cc1ccc(-c2ccccc2)cc1)C(=O)O; Hyp = O=C(O)[C@@H]1C[C@@H](O)CN1; Tic = O=C(O)[C@@H]1Cc2ccccc2CN1; Aze = O=C(O)[C@@H]1CCN1; Sar = CNCC(=O)O

Target: TNFα (Homo sapiens, UniProt P01375)
Sequence (P01375 77-233 limits assumed): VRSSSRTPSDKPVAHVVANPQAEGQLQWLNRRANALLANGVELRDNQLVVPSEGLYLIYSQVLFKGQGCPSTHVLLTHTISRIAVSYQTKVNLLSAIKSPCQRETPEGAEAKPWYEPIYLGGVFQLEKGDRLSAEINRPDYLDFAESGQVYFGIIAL
Assay: TNF-Induced HEK-Blue Assay
Assay type: cell-based
Conditions: HEK-Blue-CD40L cells, NF-kB-driven secreted alkaline phosphatase reporter; TNFα 0.5 ng/ml; 18 h; read-out: TNF induced HEK-Blue assay IC50 value

In the case of `CC(C)C[C@@H]1NC(=O)[C@H](Cc2ccc(O)cc2)NC(=O)[C@H](C(C)C)NC(=O)[C@@H]2C[C@@H](O)CN2C(=O)[C@H](C(C)C)NC(=O)[C@H](CCCNC(=N)N)NC(=O)[C@H](CC(=O)O)NC(=O)[C@H](Cc2ccc(O)cc2)NC(=O)CN(C)C(=O)[C@H](Cc2ccc(-c3ccccc3)cc2)NC(=O)[C@H](Cc2ccc(-c3ccccc3)cc2)NC(=O)[C@H](CN2CCOCC2)NC(=O)CSC[C@@H](C(=O)NCC(N)=O)NC1=O` [Example 73] ({CH2CO}-[Ala(morpholin-4-yl)][Bip][Bip][Sar]YDRV[Hyp]VYLCG-NH2; thioether N-13), the IC50 is reported as 0.2 to 2 µM.
`CC(C)C[C@@H]1NC(=O)[C@H](Cc2ccc(O)cc2)NC(=O)[C@H](C(C)C)NC(=O)[C@@H]2Cc3ccccc3CN2C(=O)[C@H](C(C)C)NC(=O)[C@H](CCCNC(=N)N)NC(=O)[C@H](CC(=O)O)NC(=O)[C@H](Cc2ccc(O)cc2)NC(=O)CN(C)C(=O)[C@H](Cc2ccc(-c3ccccc3)cc2)NC(=O)[C@H](Cc2ccc(-c3ccccc3)cc2)NC(=O)[C@H](CN2CCOCC2)NC(=O)CSC[C@@H](C(=O)NCC(N)=O)NC1=O` [Example 74] ({CH2CO}-[Ala(morpholin-4-yl)][Bip][Bip][Sar]YDRV[Tic]VYLCG-NH2; thioether N-13) was tested, and the IC50 was 0.2 to 2 µM.
`CC(C)C[C@@H]1NC(=O)[C@H](Cc2ccc(O)cc2)NC(=O)[C@H](C(C)C)NC(=O)[C@@H]2CCN2C(=O)[C@H](C(C)C)NC(=O)[C@H](CCCNC(=N)N)NC(=O)[C@H](CC(=O)O)NC(=O)[C@H](Cc2ccc(O)cc2)NC(=O)CN(C)C(=O)[C@H](Cc2ccc(-c3ccccc3)cc2)NC(=O)[C@H](Cc2ccc(-c3ccccc3)cc2)NC(=O)[C@H](CN2CCOCC2)NC(=O)CSC[C@@H](C(=O)NCC(N)=O)NC1=O` [Example 75] ({CH2CO}-[Ala(morpholin-4-yl)][Bip][Bip][Sar]YDRV[Aze]VYLCG-NH2; thioether N-13) gave an IC50 of 0.2 to 2 µM.
`CC(C)C[C@@H]1NC(=O)[C@H](CCCNC(=N)N)NC(=O)[C@H](C(C)C)NC(=O)[C@@H]2CCCN2C(=O)[C@H](C(C)C)NC(=O)[C@@H](CCCNC(=N)N)NC(=O)[C@H](CC(=O)O)NC(=O)[C@H](Cc2ccc(O)cc2)NC(=O)CN(C)C(=O)[C@H](Cc2ccc(-c3ccccc3)cc2)NC(=O)[C@H](Cc2ccc(-c3ccccc3)cc2)NC(=O)[C@H](CN2CCOCC2)NC(=O)CSC[C@@H](C(=O)NCC(N)=O)NC1=O` [Example 76] ({CH2CO}-[Ala(morpholin-4-yl)][Bip][Bip][Sar]YD[dR]VPVRLCG-NH2; thioether N-13) was tested, and the IC50 was < 0.05 µM.
Compound `CC(C)C[C@@H]1NC(=O)[C@H](Cc2ccc(O)cc2)NC(=O)[C@H](C(C)C)NC(=O)[C@@H]2CCCN2C(=O)[C@H](C(C)C)NC(=O)[C@@H](CCCNC(=N)N)NC(=O)[C@H](CC(=O)O)NC(=O)[C@@H]2CCCN2C(=O)CN(C)C(=O)[C@H](Cc2ccc(-c3ccccc3)cc2)NC(=O)[C@H](Cc2ccc(-c3ccccc3)cc2)NC(=O)[C@H](CN2CCOCC2)NC(=O)CSC[C@@H](C(=O)NCC(N)=O)NC1=O` [Example 77] ({CH2CO}-[Ala(morpholin-4-yl)][Bip][Bip][Sar]PD[dR]VPVYLCG-NH2; thioether N-13) has an IC50 of 0.2 to 2 µM.
Work on `CC(C)C[C@@H]1NC(=O)[C@H](Cc2ccc(O)cc2)NC(=O)[C@H](C(C)C)NC(=O)[C@@H]2C[C@@H](O)CN2C(=O)[C@H](C(C)C)NC(=O)[C@@H](CCCNC(=N)N)NC(=O)[C@H](CC(=O)O)NC(=O)[C@H](Cc2ccc(O)cc2)NC(=O)CN(C)C(=O)[C@H](Cc2ccc(-c3ccccc3)cc2)NC(=O)[C@H](Cc2ccc(-c3ccccc3)cc2)NC(=O)[C@H](CN2CCOCC2)NC(=O)CSC[C@@H](C(=O)NCC(N)=O)NC1=O` [Example 78] ({CH2CO}-[Ala(morpholin-4-yl)][Bip][Bip][Sar]YD[dR]V[Hyp]VYLCG-NH2; thioether N-13) yielded an IC50 of 0.05 to 0.2 µM.
In the case of `CC(C)C[C@@H]1NC(=O)[C@H](Cc2ccc(O)cc2)NC(=O)[C@H](C(C)C)NC(=O)[C@@H]2CCN2C(=O)[C@H](C(C)C)NC(=O)[C@@H](CCCNC(=N)N)NC(=O)[C@H](CC(=O)O)NC(=O)[C@H](Cc2ccc(O)cc2)NC(=O)CN(C)C(=O)[C@H](Cc2ccc(-c3ccccc3)cc2)NC(=O)[C@H](Cc2ccc(-c3ccccc3)cc2)NC(=O)[C@H](CN2CCOCC2)NC(=O)CSC[C@@H](C(=O)NCC(N)=O)NC1=O` [Example 79] ({CH2CO}-[Ala(morpholin-4-yl)][Bip][Bip][Sar]YD[dR]V[Aze]VYLCG-NH2; thioether N-13), the IC50 is reported as < 0.05 µM.
`CC(C)C[C@@H]1NC(=O)[C@H](Cc2ccc(O)cc2)NC(=O)[C@H](C(C)C)NC(=O)[C@@H]2C[C@@H](O)CN2C(=O)[C@H](C(C)C)NC(=O)[C@@H](CCCNC(=N)N)NC(=O)[C@H](CC(=O)O)NC(=O)[C@@H]2CCCN2C(=O)CN(C)C(=O)[C@H](Cc2ccc(-c3ccccc3)cc2)NC(=O)[C@H](Cc2ccc(-c3ccccc3)cc2)NC(=O)[C@H](CN2CCOCC2)NC(=O)CSC[C@@H](C(=O)NCC(N)=O)NC1=O` [Example 80] ({CH2CO}-[Ala(morpholin-4-yl)][Bip][Bip][Sar]PD[dR]V[Hyp]VYLCG-NH2; thioether N-13) gave an IC50 of 0.2 to 2 µM.
In the case of `CC(C)C[C@@H]1NC(=O)[C@H](Cc2ccc(O)cc2)NC(=O)[C@H](C(C)C)NC(=O)[C@@H]2Cc3ccccc3CN2C(=O)[C@H](C(C)C)NC(=O)[C@@H](CCCNC(=N)N)NC(=O)[C@H](CC(=O)O)NC(=O)[C@@H]2CCCN2C(=O)CN(C)C(=O)[C@H](Cc2ccc(-c3ccccc3)cc2)NC(=O)[C@H](Cc2ccc(-c3ccccc3)cc2)NC(=O)[C@H](CN2CCOCC2)NC(=O)CSC[C@@H](C(=O)NCC(N)=O)NC1=O` [Example 81] ({CH2CO}-[Ala(morpholin-4-yl)][Bip][Bip][Sar]PD[dR]V[Tic]VYLCG-NH2; thioether N-13), the IC50 is reported as 0.05 to 0.2 µM.
For `CC(C)C[C@@H]1NC(=O)[C@H](Cc2ccc(O)cc2)NC(=O)[C@H](C(C)C)NC(=O)[C@@H]2CCN2C(=O)[C@H](C(C)C)NC(=O)[C@@H](CCCNC(=N)N)NC(=O)[C@H](CC(=O)O)NC(=O)[C@@H]2CCCN2C(=O)CN(C)C(=O)[C@H](Cc2ccc(-c3ccccc3)cc2)NC(=O)[C@H](Cc2ccc(-c3ccccc3)cc2)NC(=O)[C@H](CN2CCOCC2)NC(=O)CSC[C@@H](C(=O)NCC(N)=O)NC1=O` [Example 82] ({CH2CO}-[Ala(morpholin-4-yl)][Bip][Bip][Sar]PD[dR]V[Aze]VYLCG-NH2; thioether N-13), the IC50 was 0.2 to 2 µM.
Work on `CC(C)C[C@@H]1NC(=O)[C@H](Cc2ccc(O)cc2)NC(=O)[C@H](C(C)C)NC(=O)[C@@H]2CCCN2C(=O)[C@H](CC(N)=O)NC(=O)[C@H](CCCNC(=N)N)NC(=O)[C@H](CC(=O)O)NC(=O)[C@H](Cc2ccc(O)cc2)NC(=O)CN(C)C(=O)[C@H](Cc2ccc(-c3ccccc3)cc2)NC(=O)[C@H](Cc2ccc(-c3ccccc3)cc2)NC(=O)[C@H](CN2CCOCC2)NC(=O)CSC[C@@H](C(=O)NCC(N)=O)NC1=O` [Example 83] ({CH2CO}-[Ala(morpholin-4-yl)][Bip][Bip][Sar]YDRNPVYLCG-NH2; thioether N-13) yielded an IC50 of 0.05 to 0.2 µM.
Work on `CC(=O)Nc1ccc(-c2ccc(C[C@@H]3NC(=O)[C@H](CN4CCOCC4)NC(=O)CSC[C@@H](C(=O)NCC(N)=O)NC(=O)[C@H](C(C)C)NC(=O)[C@H](CCCNC(=N)N)NC(=O)[C@H](C(C)C)NC(=O)[C@@H]4CCCN4C(=O)[C@H](C(C)C)NC(=O)[C@@H](CCCNC(=N)N)NC(=O)[C@H](CC(=O)O)NC(=O)[C@@H]4CCCN4C(=O)CN(C)C(=O)[C@H](Cc4ccc(-c5ccccc5)cc4)NC3=O)cc2)cc1` [Example 85] ({CH2CO}-[Ala(morpholin-4-yl)][Bip(4'-NHAc)][Bip][Sar]PD[dR]VPVRVCG-NH2; thioether N-13) yielded an IC50 of 0.2 to 2 µM.
